Experimental data taken from paper PMC7284125, “Identification of annotated bioactive molecules that impair motility of the blood fluke Schistosoma mansoni” (International Journal for Parasitology: Drugs and Drug …, 2020).
Where two headings read alike, the source gives them in different places.

Tests used:
[1] = test system: S. mansoni schistosomulae; experiment: Motility assay on schistosomulae (pixel displacement, relative to DMSO control); assay type: cell-based, Schistosoma mansoni; conditions: for activity at 1 µM: Schistosoma mansoni, read-out: Fractional motility; for activity at 1 µM / Fractional motility: schistosomulae
Experimental: Puerto Rican strain Biomphalaria glabrata snails infected with S. mansoni were kindly provided by Dr. Fred Lewis (Biomedical Research Institute and BEI Resources, MD, USA). Schistosomulae were obtained by exposing six to eight weeks-old snails to continuous light for 2 h at 32 °C. The resulting suspension of cercaria was then mechanically transformed as described ([Lewis, 2001]) and cultured in Opti-MEM/antibiotics (Thermo Fisher Scientific, Waltham, MA) containing 100 μg/mL streptomycin and 100 units/ml penicillin supplemented with 5% fetal bovine serum (FBS; Thermo Fisher). Parasite cultures were incubated at 37 °C with 5% CO2 for at least 10 days with no apparent loss of viability. At this point, animals with internal dark granulations and with no observable body contraction/relaxation cycles were considered dead.
(§1) Schistosomulae (200/well) and adult parasites (unpaired worms) were maintained in 300 μL OPTI-MEM with 5% dialyzed FBS (without antibiotics) and exposed to compounds at 1 and 10 μM for 24 h. A kinetic assay consisting of 1, 3, 6 and 12 h incubation times was performed on selected hits by motility monitoring using a stereo microscope (SMZ1270, Nikon) for adults and an inverted microscope for schistosomulae (eclipse TE2000-U, Nikon) connected to a monochrome camera (DS-Qi2, Nikon) for image acquisition. Images were recorded at a rate of 10 frames/s for a period of 1 min and videos were analyzed using ImageJ software (version 1.41, NIH, USA). Parasite movement quantification and data analysis protocols were applied using the pixel displacement method ([Patocka et al., 2014]; [Rashid et al., 2015]) and compared to control parasites treated with DMSO. Parasites were then washed several times in Opti-MEM, 5% FBS and incubated up to an additional three days (schistosomulae) or five days (adult worms) at 37 °C, 5% CO2 and motility was recorded as described above.

[2] = test system: S. mansoni adult worms; experiment: Motility assay on adult parasites (pixel displacement, relative to DMSO control); assay type: cell-based, Schistosoma mansoni; conditions: 10 μM; for Fractional motility: secondary screen; for motility phenotype in words: adults, long-term after washout
Experimental: Adult parasites were collected from 40 day-old female CD1 mice (Charles River) previously inoculated by the tail infection method ([Lewis, 2001]). Six weeks post-infection, mice were sacrificed, and adult worms extracted after perfusion of in the hepatic portal vein and mesenteric venules ([Lewis, 2001]). Animal procedures were reviewed and approved by the Facility Animal Care Committee of McGill University (Protocol No. 3346) and were conducted in accordance with the guidelines of the Canadian Council on Animal Care.
as §1

[3] = test system: S. mansoni schistosomulae; experiment: Phenotypic primary screen assay on schistosomulae (phenotype; viability by methylene blue dye exclusion); assay type: cell-based; conditions: Schistosoma mansoni; three-day-old schistosomulae, 10 μM, 24 h; calculated 5 days post compound exposure; read-out: Viability (%)
[4] = test system: S. mansoni schistosomulae; experiment: as above; assay type: cell-based, Schistosoma mansoni; conditions: for Phenotype / Viability (%): three-day-old schistosomulae, 10 μM, 24 h; for Phenotype: estimated 5 days post compound exposure; for Viability (%): calculated 5 days post compound exposure
Experimental: Puerto Rican strain Biomphalaria glabrata snails infected with S. mansoni were kindly provided by Dr. Fred Lewis (Biomedical Research Institute and BEI Resources, MD, USA). Schistosomulae were obtained by exposing six to eight weeks-old snails to continuous light for 2 h at 32 °C. […] At this point, animals with internal dark granulations and with no observable body contraction/relaxation cycles were considered dead.
Schistosomulae were monitored under a stereo microscope (SMZ1270, Nikon). Phenotypic observations were made by analyzing schistosomulae, 24 h after drug addition to assess any immediate effect and five days post-compound exposure to observe long-term impacts on both the movement and overall body shape in comparison to control animals exposed to DMSO only.

[5] = 120 h, secondary screen, 24h exposure, read at D5, 1 µM
[6] = secondary screen, 24h exposure, read at D1, 1 µM
[7] = secondary screen, 24h exposure, read at D1, 10 µM
[8] = secondary screen, 24h exposure, read at D5, 10 µM
[9] = secondary screen, 24h exposure, read at D5, 1 µM

Compound	activity at 1 µM [1, 5] [%]	activity at 1 µM [1, 6] [%]	Fractional motility ([1]; 1h exposure, read at D1, 10 µM)	Fractional motility ([1]; 1h exposure, read at D5, 10 µM)	Fractional motility ([1]; 3h exposure, read at D5, 10 µM)	Fractional motility ([1]; 6h exposure, read at D1, 10 µM)	Fractional motility [1, 7]	Fractional motility [1, 8]	Fractional motility ([2]; D1, Female adult worms)	Fractional motility ([2]; D1, Male adult worms)	Fractional motility ([2]; D5, Female adult worms)	Fractional motility ([2]; D5, Male adult worms)	viability at 10 µM [3] [%]	Phenotype [4]	Fractional motility [1, 6]	Fractional motility [1, 9]	Viability (%) [4]	further results
C[C@@H](NCCCc1cccc(C(F)(F)F)c1)c1cccc2ccccc12 [AMG-073]	-32	-28	7.02	0.35	0.72	6.39	-0.83	-1.00	0.11	-0.24	-0.43	-0.27	55	big, granulated, blebbing	–	–	–	Fractional motility ([1]; 3h exposure, read at D1, 10 µM): 12.64; motility in extended assay with reduced incubation times, in words ([1]; three-day old schistosomulae, incubation 1 h, 3 h, 6 h): did not exhibit a significant change before the 24 hr incubation cut-off
COc1cc(N2CCN(C)CC2)ccc1Nc1nccc(-c2cn(C)c3cnccc23)n1 [AZ191]	49	-38	–	–	–	–	-0.69	-0.09	-0.48	0.25	-0.27	2.64	89.5	granulated, blebbing	–	–	–	–
C=CC(=O)Nc1cc(Nc2nccc(-c3cn(C)c4ccccc34)n2)c(OC)cc1N(C)CCN(C)C [AZD9291]	134	89	0.30	-0.42	-0.33	-0.37	7.13	-0.73	-0.59	0.48	-0.14	-0.20	39.5	dark, granulated, some blebbing	–	–	–	Fractional motility ([1]; 3h exposure, read at D1, 10 µM): 1.06; Fractional motility ([1]; 6h exposure, read at D5, 10 µM): 0.0374
C=CC[C@]1(O)CC[C@H]2[C@@H]3CCC4=CC(=O)CCC4=C3C=C[C@@]21C [Altrenogest]	-12	147	–	–	–	–	10.00	-0.06	-0.04	-0.0348	-0.50	0.0449	90	elongated	–	–	–	–
CN(C)CCC=C1c2ccccc2CCc2ccccc21 [Amitriptyline]	-4	286	–	–	–	–	5.01	0.60	0.24	1.53	0.30	0.03	90	elongated, granulated, blebbing	–	–	–	–
CC(=O)c1cc([N+](=O)[O-])c(Sc2ccc(F)cc2F)s1 [P22077]	–	–	0.71	0.10	-0.09	10.22	2.27	-0.98	-0.33	-0.12	-0.88	-0.79	–	dark, granulated	-0.36	-0.61	5%	Fractional motility ([1]; 3h exposure, read at D1, 10 µM): 3.24; Fractional motility ([1]; 6h exposure, read at D5, 10 µM): -0.30; motility phenotype in words [2]: severely paralyzed adults
Cc1cnc(-c2cc(N3CCN(C(=O)CCS(C)(=O)=O)CC3)ncc2Cl)c(C)c1 [PF-5274857]	–	–	–	–	–	–	0.15	4.02	-0.02	-0.62	-0.13	-0.56	–	granulated	-0.26	-0.49	96.5%	–
O=C(/C=C/c1ccc2ccccc2n1)c1ccncc1 [PFK15]	–	–	–	–	–	–	3.41	-0.80	-0.30	4.15	-0.50	0.98	–	dark, granulated	1.64	-0.50	63%	–
N#CSc1cc(SC#N)c(N)nc1N [PR-619]	–	–	–	–	–	–	0.27	-0.76	0.35	0.35	-0.88	-0.93	–	dark, granulated	2.00	0.18	54,5%	hypomotility ([2]; adult male and female parasites, long-term): 94.5%; motility phenotype in words [2]: severely paralyzed adults
NS(=O)(=O)C#Cc1ccccc1 [Pifithrin-μ]	–	–	–	–	–	–	2.61	-1.00	-0.0347	-0.36	-0.90	-0.23	–	big , dark, granulated	1.37	-0.80	0%	–
O=C(Nc1ccccc1-c1cn2c(CN3CCNCC3)csc2n1)c1cnc2ccccc2n1 [SRT1720]	–	–	–	–	–	–	-1.00	-1.00	3.42	2.50	0.62	1.34	–	dark, granulated	20.54	0.36	0%	effect on viability of schistosomulae in words ([4]; 24 h incubation, five days): lethal
HO-3867	–	–	1.63	-0.56	-0.41	-0.37	2.56	-0.58	0.32	0.13	-0.89	-0.84	–	dark, granulated	1.34	1.27	42,5%	Fractional motility ([1]; 6h exposure, read at D5, 10 µM): -0.0245; motility phenotype in words [2]: Significant hypomotility
